Data reported in the supplement of paper PMC6045584.
± gives the standard deviation of the averaged measurements.

Columns and labels:
[1] = compound: CC(=O)c1c(C)c2cnc(Nc3ccc(N4CCNCC4)cn3)nc2n(C2CCCC2)c1=O; experiment: surviving fraction relative to DMSO-only wells; higher = less growth inhibition; conditions: exposure time: 5 days
Summary of the method: (§1)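 Lines were retained only if, across three screens, replicate Pearson r was >0.7 and median Z' was >0.3. Viability was measured as CellTiter-Glo luminescence and reported as surviving fraction relative to the median of DMSO-only wells. Readings followed 10 minutes at room temperature, after log-phase tumour cells seeded at 250–500 per well in 384-well plates had been exposed, from 24 hours after seeding, continuously for five days to inhibitors at 0.5, 1, 5, 10, 50, 100, 500 and 1000 nM.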

[2] = compound: CC(=O)NCC(=O)N1[C@@H]2CC[C@H]1c1ccc(Nc3ncc(C(F)(F)F)c(NC4CCC4)n3)cc12; experiment: as above; conditions: exposure time: 5 days
Summary of the method: as §1

| Test System | surviving fraction ([1]; 0.5 nM) | surviving fraction ([1]; 1 nM) | surviving fraction ([1]; 5 nM) | surviving fraction ([1]; 10 nM) | surviving fraction ([1]; 50 nM) | surviving fraction ([1]; 100 nM) | surviving fraction ([1]; 500 nM) | surviving fraction ([1]; 1000 nM) | surviving fraction ([2]; 0.5 nM) | surviving fraction ([2]; 1 nM) | surviving fraction ([2]; 5 nM) | surviving fraction ([2]; 10 nM) | surviving fraction ([2]; 50 nM) | surviving fraction ([2]; 100 nM) | surviving fraction ([2]; 500 nM) | surviving fraction ([2]; 1000 nM) |
| --- | --- | --- | --- | --- | --- | --- | --- | --- | --- | --- | --- | --- | --- | --- | --- | --- |
| 22RV1 PROSTATE | 1.05 ± 0.089 | 1.06 ± 0.032 | 1.04 ± 0.067 | 1.048 ± 0.0085 | 1.09 ± 0.053 | 1.11 ± 0.08 | 1.11 ± 0.071 | 1.03 ± 0.027 | 0.97 ± 0.066 | 0.996 ± 0.047 | 0.937 ± 0.029 | 0.95 ± 0.03 | 0.587 ± 0.021 | 0.678 ± 0.026 | 0.625 ± 0.059 | 0.56 ± 0.066 |
| 93VU HEADNECK | 1.09 ± 0.1 | 1.04 ± 0.09 | 1.12 ± 0.049 | 1.07 ± 0.025 | 1.18 ± 0.12 | 1.14 ± 0.14 | 1.17 ± 0.038 | 1.19 ± 0.045 | 0.823 ± 0.059 | 0.803 ± 0.035 | 0.951 ± 0.029 | 1 ± 0.061 | 0.895 ± 0.055 | 0.682 ± 0.0098 | 0.331 ± 0.043 | 0.114 ± 0.021 |
| 143B BONE | 1.042 ± 0.0092 | 1.048 ± 0.0064 | 1.03 ± 0.021 | 1.051 ± 0.0099 | 1.03 ± 0.046 | 1.043 ± 0.0099 | 1.03 ± 0.027 | 1.02 ± 0.027 | 0.98 ± 0.021 | 0.996 ± 0.013 | 1.01 ± 0.026 | 0.966 ± 0.018 | 0.868 ± 0.0085 | 0.928 ± 0.015 | 0.597 ± 0.039 | 0.495 ± 0.056 |
| A549 LUNG | 1.03 ± 0.035 | 1.02 ± 0.018 | 1.05 ± 0.0087 | 0.993 ± 0.039 | 1.07 ± 0.063 | 1.12 ± 0.042 | 1.154 ± 0.007 | 1.116 ± 0.011 | 0.952 ± 0.013 | 0.93 ± 0.018 | 0.906 ± 0.016 | 0.911 ± 0.014 | 0.686 ± 0.024 | 0.65 ± 0.031 | 0.585 ± 0.014 | 0.445 ± 0.022 |
| ASKA SYNOVIAL | 1.04 ± 0.06 | 0.971 ± 0.057 | 1.06 ± 0.094 | 1.02 ± 0.071 | 1.07 ± 0.1 | 1.08 ± 0.074 | 0.82 ± 0.034 | 0.73 ± 0.023 | 0.973 ± 0.052 | 0.908 ± 0.012 | 0.972 ± 0.085 | 0.912 ± 0.084 | 0.365 ± 0.018 | 0.335 ± 0.023 | 0.34 ± 0.012 | 0.386 ± 0.035 |
| BT20 BREAST | 1.12 ± 0.19 | 1.06 ± 0.3 | 0.955 ± 0.23 | 0.982 ± 0.1 | 0.981 ± 0.32 | 0.924 ± 0.24 | 0.916 ± 0.22 | 0.86 ± 0.21 | 1.03 ± 0.028 | 0.968 ± 0.062 | 1.02 ± 0.09 | 0.87 ± 0.051 | 0.365 ± 0.054 | 0.199 ± 0.038 | 0.293 ± 0.041 | 0.291 ± 0.055 |
| BT549 BREAST | 1.1 ± 0.12 | 1.124 ± 0.0096 | 1.22 ± 0.14 | 1.03 ± 0.098 | 1.13 ± 0.17 | 0.979 ± 0.16 | 1.12 ± 0.12 | 1.05 ± 0.036 | 1.11 ± 0.058 | 1.09 ± 0.046 | 1.04 ± 0.12 | 1.05 ± 0.073 | 0.993 ± 0.1 | 0.494 ± 0.071 | 0.409 ± 0.071 | 0.237 ± 0.014 |
| CADOES1 SOFT TISSUE | 0.962 ± 0.048 | 0.897 ± 0.11 | 0.821 ± 0.078 | 0.883 ± 0.13 | 0.83 ± 0.053 | 0.921 ± 0.039 | 0.726 ± 0.011 | 0.704 ± 0.048 | 0.969 ± 0.1 | 0.955 ± 0.099 | 0.883 ± 0.094 | 0.849 ± 0.1 | 0.565 ± 0.074 | 0.109 ± 0.011 | 0.0853 ± 0.005 | 0.0867 ± 0.0065 |
| CAL51 BREAST | 0.964 ± 0.089 | 0.962 ± 0.055 | 0.982 ± 0.037 | 0.94 ± 0.06 | 0.997 ± 0.029 | 1.07 ± 0.012 | 0.968 ± 0.052 | 0.908 ± 0.0048 | 1.01 ± 0.041 | 0.9652 ± 0.005 | 0.988 ± 0.032 | 0.946 ± 0.013 | 0.675 ± 0.019 | 0.222 ± 0.0058 | 0.144 ± 0.0039 | 0.146 ± 0.009 |
| CAL72 BONE | 1.1 ± 0.066 | 1.12 ± 0.061 | 1.12 ± 0.025 | 1.13 ± 0.05 | 1.13 ± 0.037 | 1.14 ± 0.022 | 1.14 ± 0.078 | 1.07 ± 0.048 | 1.06 ± 0.039 | 1.09 ± 0.051 | 1.12 ± 0.057 | 1.04 ± 0.011 | 0.917 ± 0.032 | 0.846 ± 0.022 | 0.571 ± 0.025 | 0.419 ± 0.026 |
| CAL120 BREAST | 0.953 ± 0.017 | 0.965 ± 0.026 | 0.9478 ± 0.0082 | 0.9508 ± 0.0056 | 1.01 ± 0.014 | 0.974 ± 0.0098 | 0.9508 ± 0.0081 | 0.935 ± 0.013 | 0.923 ± 0.051 | 0.9253 ± 0.0041 | 0.945 ± 0.029 | 0.9333 ± 0.0076 | 0.8605 ± 0.0059 | 0.643 ± 0.025 | 0.489 ± 0.053 | 0.387 ± 0.047 |
| CASKI CERVIX | 1.02 ± 0.062 | 0.971 ± 0.028 | 0.999 ± 0.038 | 0.977 ± 0.015 | 1.09 ± 0.034 | 1.08 ± 0.019 | 1.05 ± 0.049 | 1.05 ± 0.028 | 0.928 ± 0.014 | 0.939 ± 0.042 | 0.968 ± 0.072 | 0.946 ± 0.067 | 0.771 ± 0.049 | 0.214 ± 0.018 | 0.199 ± 0.015 | 0.133 ± 0.0061 |
| CHLA90 AUTONOMIC GANGLIA | 1.04 ± 0.067 | 1.06 ± 0.02 | 1.04 ± 0.075 | 1.01 ± 0.055 | 0.934 ± 0.013 | 0.95 ± 0.035 | 0.839 ± 0.053 | 0.687 ± 0.015 | 0.951 ± 0.025 | 0.983 ± 0.046 | 0.96 ± 0.028 | 0.91 ± 0.039 | 0.754 ± 0.032 | 0.5867 ± 0.0055 | 0.436 ± 0.045 | 0.301 ± 0.037 |
| CME SYNOVIAL | 1.23 ± 0.18 | 1.27 ± 0.14 | 1.3 ± 0.18 | 1.18 ± 0.11 | 1.37 ± 0.062 | 1.23 ± 0.099 | 1.22 ± 0.066 | 1.09 ± 0.14 | 1.13 ± 0.079 | 1.02 ± 0.17 | 0.992 ± 0.16 | 1.08 ± 0.066 | 0.915 ± 0.032 | 0.395 ± 0.036 | 0.255 ± 0.02 | 0.33 ± 0.015 |
| DU4475 BREAST | 1.11 ± 0.15 | 1.23 ± 0.076 | 1.08 ± 0.17 | 1.08 ± 0.31 | 1.03 ± 0.3 | 0.997 ± 0.36 | 1.02 ± 0.32 | 0.951 ± 0.32 | 0.776 ± 0.12 | 0.802 ± 0.15 | 0.821 ± 0.16 | 0.783 ± 0.2 | 0.49 ± 0.36 | 0.131 ± 0.097 | 0.0413 ± 0.016 | 0.0397 ± 0.0038 |
| G292 BONE | 1 ± 0.068 | 0.976 ± 0.033 | 1 ± 0.024 | 1.02 ± 0.045 | 0.951 ± 0.062 | 0.929 ± 0.058 | 0.678 ± 0.025 | 0.678 ± 0.036 | 0.997 ± 0.043 | 0.968 ± 0.052 | 0.999 ± 0.025 | 0.949 ± 0.015 | 0.59 ± 0.028 | 0.485 ± 0.017 | 0.181 ± 0.0022 | 0.087 ± 0.001 |
| H23 LUNG | 1.01 ± 0.035 | 1 ± 0.029 | 1.04 ± 0.038 | 0.928 ± 0.065 | 1.132 ± 0.01 | 1.12 ± 0.068 | 1.15 ± 0.074 | 1.13 ± 0.033 | 0.971 ± 0.037 | 0.95 ± 0.015 | 0.936 ± 0.037 | 0.931 ± 0.029 | 0.949 ± 0.04 | 0.69 ± 0.051 | 0.471 ± 0.0074 | 0.421 ± 0.014 |
| HCC38 BREAST | 1.11 ± 0.12 | 1.22 ± 0.16 | 1.23 ± 0.036 | 1.19 ± 0.14 | 1.21 ± 0.15 | 1.09 ± 0.096 | 1.28 ± 0.12 | 1.24 ± 0.11 | 1.19 ± 0.12 | 1.19 ± 0.3 | 0.952 ± 0.096 | 1.26 ± 0.31 | 0.747 ± 0.077 | 0.668 ± 0.051 | 0.594 ± 0.15 | 0.455 ± 0.062 |
| HCC70 BREAST | 1.02 ± 0.051 | 0.999 ± 0.056 | 1.13 ± 0.032 | 1.05 ± 0.034 | 1.155 ± 0.0084 | 1.08 ± 0.08 | 0.983 ± 0.066 | 1.1 ± 0.055 | 0.976 ± 0.052 | 1.03 ± 0.057 | 0.982 ± 0.099 | 1.01 ± 0.033 | 0.864 ± 0.051 | 0.488 ± 0.026 | 0.243 ± 0.052 | 0.203 ± 0.036 |
| HCC78 LUNG | 1.03 ± 0.14 | 0.975 ± 0.063 | 1.29 ± 0.046 | 0.899 ± 0.2 | 1.02 ± 0.25 | 1.17 ± 0.14 | 0.619 ± 0.11 | 0.579 ± 0.041 | 0.885 ± 0.16 | 0.798 ± 0.052 | 0.935 ± 0.13 | 0.878 ± 0.28 | 0.735 ± 0.07 | 0.188 ± 0.064 | 0.236 ± 0.082 | 0.298 ± 0.075 |
